According to patent publication US11236072B2, “N-[(pyrimidinylamino)propanyl]-,n-[pyridylamino)propanyl]- and n-[(pyrazinylaminol)propanyl]arylcarboxamides” (Boehringer Ingelheim International GmbH, priority 2017, dated 2022):
pIC50: −log10 of the molar value. Where two headings read alike, the source gives them in different places.

Key:
OX2R [1] = molecular target: T1, OX2R (Homo sapiens, UniProt O43614); assay: In vitro OX2R potency as reported in WO2016/034882
T1 sequence (O43614 1-444): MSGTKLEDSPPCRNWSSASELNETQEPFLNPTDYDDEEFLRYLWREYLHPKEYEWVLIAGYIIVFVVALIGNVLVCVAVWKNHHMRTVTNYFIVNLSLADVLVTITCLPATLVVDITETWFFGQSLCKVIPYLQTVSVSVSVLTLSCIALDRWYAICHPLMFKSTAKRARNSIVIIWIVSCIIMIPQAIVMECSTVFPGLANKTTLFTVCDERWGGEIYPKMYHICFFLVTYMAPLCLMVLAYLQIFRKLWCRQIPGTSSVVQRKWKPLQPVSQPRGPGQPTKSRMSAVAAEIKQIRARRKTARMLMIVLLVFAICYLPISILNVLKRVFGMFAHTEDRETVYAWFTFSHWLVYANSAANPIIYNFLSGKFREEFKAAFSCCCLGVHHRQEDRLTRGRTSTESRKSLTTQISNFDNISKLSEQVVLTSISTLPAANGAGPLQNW

OX2R [2] = molecular target: T1, OX2R; conditions: cited from earlier work
[3] = Assay C: metabolic stability in human liver microsomes (Human MST); format: in vitro ADME; conditions: pH 7.6; pooled human liver microsomes, 1 μM compound, 37° C.; read-out: Human MST t1/2
Source text: Stability in human liver microsomes refers to the susceptibility of compounds to biotransformation in the context of selecting and/or designing drugs with favorable pharmacokinetic properties. The primary site of metabolism for many drugs is the liver. Human liver microsomes contain the cytochrome P450s (CYPs), and thus represent a model system for studying drug metabolization in vitro. Enhanced stability in human liver microsomes is associated with several advantages, including increased bioavailability and longer half-life, which can enable lower and less frequent dosing of patients. Thus, enhanced stability in human liver microsomes is a favorable characteristic for compounds that are to be used for drugs.
C. Assessment of Metabolic Stability in Human Liver Microsomes (Human MST)
The metabolic stability of the compounds according to the invention may be investigated as follows:
The metabolic degradation of the test compound is assayed at 37° C. with pooled human liver microsomes. The final incubation volume of 100 μL per time point contains TRIS buffer pH 7.6 at room temperature (0.1 M), MgCl2 (5 mM), microsomal protein (1 mg/mL) and the test compound at a final concentration of 1 μM. Following a short pre-incubation period at 37° C., the reactions are initiated by addition of beta-nicotinamide adenine dinucleotide phosphate, reduced form (NADPH, 1 mM), and terminated by transferring an aliquot into solvent after different time points. After centrifugation (10000 g, 5 min), an aliquot of the supernatant is assayed by LC-MS/MS for the amount of parent compound. The half-life (t1/2) is determined by the slope of the semi-logarithmic plot of the concentration-time profile.

human Orexin 1 receptor = molecular target: T2, human Orexin 1 receptor (Homo sapiens, UniProt O43613); assay: Assay A: in vitro testing of OX1R potency, OX1R IP1; format: cell-based; conditions: for Kb: 50 nM Orexin A concentration
T2 sequence (O43613 1-425): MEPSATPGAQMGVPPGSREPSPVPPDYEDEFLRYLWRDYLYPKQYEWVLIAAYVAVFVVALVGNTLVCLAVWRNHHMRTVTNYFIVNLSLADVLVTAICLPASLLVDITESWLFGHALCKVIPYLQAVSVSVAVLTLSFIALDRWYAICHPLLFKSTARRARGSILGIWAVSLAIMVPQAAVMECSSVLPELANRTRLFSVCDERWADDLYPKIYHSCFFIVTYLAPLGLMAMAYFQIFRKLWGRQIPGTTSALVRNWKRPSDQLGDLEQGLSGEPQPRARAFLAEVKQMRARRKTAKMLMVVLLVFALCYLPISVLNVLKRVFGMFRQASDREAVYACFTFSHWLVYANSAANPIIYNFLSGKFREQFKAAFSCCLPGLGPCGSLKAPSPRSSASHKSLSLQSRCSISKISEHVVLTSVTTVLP
Source text: Chem. Genomics 2009, 3, 22-32.
A. In Vitro Testing of OX1R Potency: OX1R IP1

human MDR1 P-gp = assay: Assay D: efflux in MDCK cells transfected with the human MDR1 gene; format: in vitro ADME, canine; conditions: dog; MDCK-MDR1 monolayers, pH 7.4, 37° C.; read-out: MDCK efflux ratio (BA/AB)
Method: The MDCK assay provides information on the potential of a compound to pass the blood brain barrier. Permeability measurements across polarized, confluent MDCK-MDR1 cell monolayers grown on permeable filter supports are used as an in vitro absorption model: apparent permeability coefficients (PE) of the compounds across the MDCK-MDR1 cell monolayers are measured (pH 7.4, 37° C.) in apical-to-basal (AB) and basal-to-apical (BA) transport direction. […] Identical or similar permeabilities in both transport directions indicate passive permeation, vectorial permeability points to additional active transport mechanisms. Higher PEBA than PEAB (PEBA/PEAB>5) indicates the involvement of active efflux mediated by MDR1 P-gp, which might compromises the goal to achieve sufficient brain exposure. Therefore this assay provides valuable support for selection of compounds applicable for further in vivo testing. High permeability not limited by efflux at the blood brain barrier is a favourable characteristic for compounds that are to be used for drugs acting primarily in the CNS
D. Assessment of Efflux in Madin-Darby Canine Kidney (MDCK) Cells Transfected with the Human MDR1 Gene
Apparent permeability coefficients (PE) of the compounds across the MDCK-MDR1 cell monolayers are measured (pH 7.4, 37° C.) in apical-to-basal (AB) and basal-to-apical (BA) transport direction. […] The compounds are assigned to permeability/absorption classes by comparison of the AB permeabilities with the AB permeabilities of reference compounds with known in vitro permeability and oral absorption in the human. Identical or similar permeabilities in both transport directions indicate passive permeation, vectorial permeability points to additional active transport mechanisms. Higher PEBA than PEAB indicates the involvement of active efflux mediated by MDR1 P-gp. Active transport is concentration-dependently saturable.
MDCK-MDR1 cells (1-2×10e5 cells/1 cm2 area) are seeded on filter inserts (Costar transwell polycarbonate or PET filters, 0.4 μm pore size) and cultured (DMEM) for 7 days. Subsequently, the MDR1 expression is boosted by culturing the cells with 5 mM sodium butyrate in full medium for 2 days. Compounds are dissolved in appropriate solvent (like DMSO, 1-20 mM stock solutions). Stock solutions are diluted with HTP-4 buffer (128.13 mM NaCl, 5.36 mM KCl, 1 mM MgSO4, 1.8 mM CaCl2, 4.17 mM NaHCO3, 1.19 mM Na2HPO4×7H2O, 0.41 mM NaH2PO4×H2O, 15 mM HEPES, 20 mM glucose, 0.25% BSA, pH 7.4) to prepare the transport solutions (0.1-300 μM compound, final DMSO<=0.5%). The transport solution (TL) is applied to the apical or basolateral donor side for measuring A-B or B-A permeability (3 filter replicates), respectively. The receiver side contains the same buffer as the donor side. Samples are collected at the start and end of experiment from the donor and at various time intervals for up to 2 hours also from the receiver side for concentration measurement by HPLC-MS/MS or scintillation counting. Sampled receiver volumes are replaced with fresh receiver solution.

[4] = Table 3 of WO2016/034882, corresponds to pIC50
[5] = compared to Example 84 in WO2016/034882

Structure (SMILES) | half-life at 1 μM [3] [h] | Kb (human Orexin 1 receptor) [nM] | efflux ratio (human MDR1 P-gp) | further results
CC[C@@H](CNc1cnc(C(F)(F)F)cn1)N(C)C(=O)c1cc(Cl)ccc1-n1nccn1 [Ex 40 in WO2016/ 034882] | – | – | – | OX2R IC50/OX1R IC50 (OX2R [1]; Table 1 of WO2016/034882): Table 1: 156
CC[C@@H](CNc1ncc(C(F)(F)F)cn1)N(C)C(=O)c1nc(C)ccc1-n1nccn1 [Ex 46 in WO2016/ 034882] | – | – | – | OX2R IC50/OX1R IC50 (OX2R [1]; Table 1 of WO2016/034882): 390; OX2R IC50/OX1R IC50 (OX2R [1]; Table 2 of WO2016/034882): > 312; OX2R IC50/OX1R IC50 (OX2R [1]; Table 3 of WO2016/034882): 3200; pIC50 (OX2R [2]; Table 2 of WO2016/034882, corresponds to pIC50): < 5.00; OX2R pIC50 (OX2R [2]; Table 2 of WO2016/034882): < 5.0; pIC50 (OX2R [2]; [4]): ≤ 5.00; OX2R pIC50 (OX2R [2]; Table 3 of WO2016/034882): < 5.0
CC[C@@H](CNc1ncc(C(F)(F)F)cn1)N(CC)C(=O)c1nc(C)ccc1-n1nccn1 [Ex 73 in WO2016/ 034882] | – | – | – | pIC50 (OX2R [2]; [4]): < 6.00; OX2R pIC50 (OX2R [2]; Table 3 of WO2016/034882): < 6.0
CC[C@@H](CNc1ncc(C(F)(F)F)cn1)N(C)C(=O)c1c(F)cccc1-n1nccn1 [Ex 91 in WO2016/ 034882] | > 2.17 | – | – | pIC50 (OX2R [2]; [4]): ≤ 5.12; OX2R pIC50 (OX2R [2]; Table 3 of WO2016/034882): < 5.1
C[C@@H](CNc1ncc(C(F)(F)F)cn1)N(CC1CC1)C(=O)c1cccc(F)c1-n1nccn1 [Example 1] | 1.22 | 0.214 | < 3 | –
C[C@@H](CNc1ncc(C(F)(F)F)cn1)N(CCF)C(=O)c1cccc(F)c1-n1nccn1 [Example 2] | > 2.17 | 0.67 | < 3 | –
CCN(C(=O)c1cc(Cl)ccc1-n1nccn1)[C@@H](C)CNc1ncc(C(F)(F)F)cn1 [Example 3] | 2.17 | 0.032 | < 3 | –
CCN(C(=O)c1cccc(F)c1-n1nccn1)[C@@H](C)CNc1ncc(Br)cn1 [Example 4] | > 2.17 | 0.116 | < 3 | –
CCN(C(=O)c1cccc(F)c1-n1nccn1)[C@@H](C)CNc1ncc(C(F)(F)F)cc1C#N [Example 7] | 1.48 | 0.021 | < 3 | –
CCN(C(=O)c1ccc(F)c(F)c1-c1ncccn1)[C@@H](C)CNc1ncc(C(F)(F)F)cn1 [Example 8] | > 2.17 | 0.014 | < 3 | higher potency (OX1R) (human Orexin 1 receptor; [5]): over 150 fold
C[C@@H](CNc1ncc(C(F)(F)F)cn1)N(C)C(=O)c1cccc(F)c1-c1ncccn1 [Example 9] | > 2.17 | 0.223 | < 3 | higher potency (OX1R) (human Orexin 1 receptor; [5]): ~10 fold
CCN(C(=O)c1cc(Cl)ccc1-n1nccn1)[C@@H](C)CNc1cnc(C(F)(F)F)cn1 [Example 10] | 2.17 | 0.011 | < 3 | better potency (OX1R) (human Orexin 1 receptor; compared to Example 40 in WO2016/034882): 16 fold
CCN(C(=O)c1cc(F)cnc1-n1nccn1)[C@@H](C)CNc1ccc(C(F)(F)F)cn1 [Example 12] | 0.733 | 0.156 | 3 to 5.5 | higher potency (OX1R) (human Orexin 1 receptor; compared to Example 73 in WO2016/034882): approximately 2 fold
CCN(C(=O)c1cnc(C)nc1-c1ccccc1)[C@@H](C)CNc1ncc(Br)cn1 [Example 13] | 1.27 | 0.089 | < 3 | –
